The source of these data is US6797731B2, “Resorcinol derivatives” (Pfizer Inc., priority 2000, dated 2004).

The target in this experiment is T1, human tyrosinase (Homo sapiens, UniProt P14679).
T1 construct: endogenous in cells; host or cells: SKMEL 188 human melanoma cell line (lysate)
T1 sequence (P14679 19-529): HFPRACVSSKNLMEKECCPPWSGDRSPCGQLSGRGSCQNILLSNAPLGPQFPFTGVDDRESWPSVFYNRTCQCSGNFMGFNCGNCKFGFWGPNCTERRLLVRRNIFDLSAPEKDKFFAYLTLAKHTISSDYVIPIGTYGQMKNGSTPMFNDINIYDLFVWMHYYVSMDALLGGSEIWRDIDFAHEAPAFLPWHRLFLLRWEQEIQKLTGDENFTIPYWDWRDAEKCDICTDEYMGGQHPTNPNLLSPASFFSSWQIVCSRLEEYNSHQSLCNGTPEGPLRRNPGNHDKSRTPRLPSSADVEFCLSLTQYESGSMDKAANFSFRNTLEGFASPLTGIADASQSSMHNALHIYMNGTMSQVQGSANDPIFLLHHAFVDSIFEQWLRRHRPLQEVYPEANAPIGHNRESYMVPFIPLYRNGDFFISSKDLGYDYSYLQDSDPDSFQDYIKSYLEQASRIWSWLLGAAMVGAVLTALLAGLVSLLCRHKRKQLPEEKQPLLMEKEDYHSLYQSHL
Put plainly: Tyrosinase (DOPA oxidase) assay using cell lysate. The format is biochemical. To be noted: SKMEL 188 cell lysates; L-DOPA 100 μg/ml; incubated 8 hrs; read at 405 nm. As to the method:
1. Tyrosinase (DOPA Oxidase) Assay Using Cell Lysate:
Human melanoma cell line, SKMEL 188 (licensed from Memorial Sloan-Kettering), is used in the cell lysate assay and the screen. In the assay, compounds and L-dihydroxyphenylalanine (L-DOPA) (100 μg/ml) are incubated with the cell lysates containing human tyrosinase for 8 hrs before the plates are read at 405 nm.

For orientation: IC50 means the concentration needed to halve the response being measured. As for `N[C@H](Cc1ccccc1)C(=O)O[C@H]1CC[C@H](c2ccc(O)cc2O)CC1` [Example 22, trans-4-(2,4-Dihydroxyphenyl)cyclohexyl (2R)-2-amino-3-phenylpropanoate], the IC50 was about 2 µM.
